We go through 17 compounds from publication PMC5323086, “Ionization Constants of the Six Dichloroanilines and the Six Dichlorophenols in Aqueous Solution at 25 °C” (Journal of Research of the National Bureau of Standards. …, 1964).

Where two headings read alike, the source gives them in different places.

Data set [1] in a line: pK calculated from monosubstituted compounds assuming additivity of substituent effects.
The conditions of data set [2]: cited from earlier work.
Data set [3] is described as follows: physchem.
The conditions of data set [4]: aqueous solution at 25°; final value, standard deviation in parentheses; 2,6-compound: limiting value at CHCl=0.
Data set [5] in a line: pK values quoted from the literature. The conditions noted are these: Murray and Gordon value raised by 0.22. It counts as physicochemical.
Data set [6] in a line: pK calculated by the Hammett relation, eq (5) and eq (6).
Data set [7] can be described thus: pKA calculated from pKP of the corresponding phenol by linear relation eq (8).
Setting [8] is: pK (calc.)−pK (obs.), pK (calc.) from monosubstituted compounds.

As to `Nc1cccc(Cl)c1Cl` [2,3-Dichloroaniline], in data set [1] (setting [8]), the “ΔpK(1) Dichloroaniline” value is 0.16. Consider `Oc1cccc(Cl)c1Cl` [2,3-Dichlorophenol], for which the “ΔpK(1) Dichlorophenol” value in data set [1] was −0.05.

`Nc1ccc(Cl)cc1Cl` [2,4-Dichloroaniline, 2,4-Dichloroaniline]: the “ΔpK(1) Dichloroaniline” value in data set [1] (setting [8]) is “.01”. As to `Oc1ccc(Cl)cc1Cl` [2,4-Dichlorophenol], in data set [1], the “ΔpK(1) Dichlorophenol” value was “.06”. Regarding `Nc1cc(Cl)ccc1Cl` [2,5-Dichloroaniline], the melting point lay in the range of 50 to 50.5 °C. In data set [2] (Gillois and Rumpf), the pKA is given as 1.57. Turning to `Oc1cc(Cl)ccc1Cl` [2,5-Dichlorophenol], in data set [1], the “ΔpK(1) Dichlorophenol” value is listed as “.15”. Turning to `Cc1ccc(C)c(O)c1` [2,5-xylenol], in data set [2], the pK is recorded as 10.40. Regarding `Nc1c(Cl)cccc1Cl` [2,6-Dichloroaniline], the pKa in data set [3] came to 0.482. The “pK Dichloroaniline” value in data set [4] was found to be 0.422. Besides, the “ΔpK(1) Dichloroaniline” value in data set [1] (setting [8]) is listed as “.28”. With `Oc1c(Cl)cccc1Cl` [2,6-Dichlorophenol], the pKP adjusted value in data set [5] came out at 7.01. The “ΔpK(1) Dichlorophenol” value in data set [1] is on record as “.27”. Turning to `Nc1ccc(Cl)c(Cl)c1` [3,4-Dichloroaniline], the “ΔpK(1) Dichloroaniline” value in data set [1] is recorded as “−.07”.

Regarding `Oc1ccc(Cl)c(Cl)c1` [3,4-Dichlorophenol], the “difference of Hammett-calculated pK from the observed value” (from here on “difference of Hammett-calculated pK”) in data set [6] is listed as 0.08. Further, the “ΔpK(1) Dichlorophenol” value in data set [1] is recorded as “−.04”. Consider `O=C(O)c1ccc(Cl)c(Cl)c1` [3,4-dichlorobenzoic acid], for which the “ionization constant (pK)” value in data set [2] is given as 3.64.

For the compound `Nc1cc(Cl)cc(Cl)c1` [3,5-Dichloroaniline], the “difference of Hammett-calculated pK” value in data set [6] is 0.02. Further, the “ΔpK(1) Dichloroaniline” value in data set [1] is given as “.06”. For `Oc1cc(Cl)cc(Cl)c1` [3,5-Dichlorophenol], in data set [6], the “difference of Hammett-calculated pK” value was 0.01. Besides, the “ΔpK(1) Dichlorophenol” value in data set [1] is recorded as “.07”. For `O=C(O)c1cc(Cl)cc(Cl)c1` [3,5-dichlorobenzoic acid], the “ionization constant (pK)” value in data set [2] was 3.43.

On to `Nc1ccc(Cl)cc1[N+](=O)[O-]` [4-chloro-2-nitroaniline], for which, in data set [7], the “discrepancy between observed and predicted pK, eq (8)” value is recorded as 1.03. Consider `Cc1cc(N)ccc1[N+](=O)[O-]` [4-nitro-m-toluidine], for which the pK in data set [2] (Wepster) is on record as 1.50. The “discrepancy between observed and predicted pK, eq (8)” value in data set [7] is recorded as 0.17.

A word on the melting point: it is the temperature, or range, at which the solid turns liquid. By pKa is commonly meant the negative logarithm of the acid dissociation constant.
